Measurements taken from PubChem BioAssay AID2060600 (Molecular Pharmacology Branch, DTP, NCI, 2025).

Test system: 996289-038-R-J1-PDC complex spheroid viability
Assay: Anticancer human tumor 996289-038-R-J1-PDC patient-derived colon adenocarcinoma cell line growth inhibition [CLK]
Details: for IC50: curve of first compound; for viability, T/C: stronger effect = lower value
Summary of the method: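 Multi-cell-type spheroids combined patient-derived tumor cells with HUVEC endothelial cells and human mesenchymal stem cells. Paired agents were dosed in half-log steps down from about clinical Cmax, or from 10 microM where Cmax was unknown.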

[1] = second compound 0.0316 µM, first compound 0.0316 µM
[2] = second compound 0.0316 µM, first compound 0.1 µM
[3] = second compound 0.0316 µM, first compound 0.316 µM
[4] = second compound 0.0316 µM, first compound 1 µM
[5] = second compound 0.0316 µM, first compound 3.16 µM
[6] = second compound 0.0316 µM, first compound 10 µM
[7] = second compound 0.1 µM, first compound 0.0316 µM
[8] = second compound 0.1 µM, first compound 0.1 µM
[9] = second compound 0.1 µM, first compound 0.316 µM
[10] = second compound 0.1 µM, first compound 1 µM
[11] = second compound 0.1 µM, first compound 3.16 µM
[12] = second compound 0.1 µM, first compound 10 µM
[13] = second compound 0.316 µM, first compound 0.0316 µM
[14] = second compound 0.316 µM, first compound 0.1 µM
[15] = second compound 0.316 µM, first compound 0.316 µM
[16] = second compound 0.316 µM, first compound 1 µM
[17] = second compound 0.316 µM, first compound 3.16 µM
[18] = second compound 0.316 µM, first compound 10 µM
[19] = second compound 1 µM, first compound 0.0316 µM
[20] = second compound 1 µM, first compound 0.1 µM
[21] = second compound 1 µM, first compound 0.316 µM
[22] = second compound 1 µM, first compound 1 µM
[23] = second compound 1 µM, first compound 3.16 µM
[24] = second compound 1 µM, first compound 10 µM
[25] = second compound 3.16 µM, first compound 0.0316 µM
[26] = second compound 3.16 µM, first compound 0.1 µM
[27] = second compound 3.16 µM, first compound 0.316 µM
[28] = second compound 3.16 µM, first compound 1 µM
[29] = second compound 3.16 µM, first compound 3.16 µM
[30] = second compound 3.16 µM, first compound 10 µM
[31] = second compound 10 µM, first compound 0.0316 µM
[32] = second compound 10 µM, first compound 0.1 µM
[33] = second compound 10 µM, first compound 0.316 µM
[34] = second compound 10 µM, first compound 1 µM
[35] = second compound 10 µM, first compound 3.16 µM
[36] = second compound 10 µM, first compound 10 µM
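Further: spheroids exposed to the agents for 7 days before readout.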

CC(=O)O[C@H]1C(=O)[C@@]2(C)[C@H]([C@H](OC(=O)c3ccccc3)[C@]3(O)C[C@H](OC(=O)[C@H](O)[C@@H](NC(=O)c4ccccc4)c4ccccc4)C(C)=C1C3(C)C)[C@]1(OC(C)=O)CO[C@@H]1C[C@@H]2O + CNC(=O)c1ccc(Nc2nc(OC3CCCC3)c3c(-c4ccc5nc(C)oc5c4)c[nH]c3n2)c(OC)c1
IC50 (second compound 0.0316 µM): > 10000 nM | IC50 (second compound 0.1 µM): > 10000 nM | IC50 (second compound 0.316 µM): > 10000 nM | IC50 (second compound 1 µM): > 10000 nM | IC50 (second compound 3.16 µM): > 10000 nM | IC50 (second compound 10 µM): > 10000 nM | viability, T/C [1]: 109% | viability, T/C [2]: 103% | viability, T/C [3]: 79.9% | viability, T/C [4]: 70.3% | viability, T/C [5]: 67.4% | viability, T/C [6]: 64.6% | viability, T/C [7]: 110% | viability, T/C [8]: 96% | viability, T/C [9]: 80% | viability, T/C [10]: 79.2% | viability, T/C [11]: 74.8% | viability, T/C [12]: 65.4% | viability, T/C [13]: 68.6% | viability, T/C [14]: 70.3% | viability, T/C [15]: 65.6% | viability, T/C [16]: 66.3% | viability, T/C [17]: 69.2% | viability, T/C [18]: 73.3% | viability, T/C [19]: 63.2% | viability, T/C [20]: 59% | viability, T/C [21]: 57.5% | viability, T/C [22]: 53.5% | viability, T/C [23]: 62.9% | viability, T/C [24]: 61.8% | viability, T/C [25]: 59.6% | viability, T/C [26]: 55% | viability, T/C [27]: 54% | viability, T/C [28]: 54.3% | viability, T/C [29]: 59% | viability, T/C [30]: 65.2% | viability, T/C [31]: 56.7% | viability, T/C [32]: 53.5% | viability, T/C [33]: 55.2% | viability, T/C [34]: 53.8% | viability, T/C [35]: 59.6% | viability, T/C [36]: 53.7%

CCc1c2c(nc3ccc(O)cc13)-c1cc3c(c(=O)n1C2)COC(=O)[C@]3(O)CC + CNC(=O)c1ccc(Nc2nc(OC3CCCC3)c3c(-c4ccc5nc(C)oc5c4)c[nH]c3n2)c(OC)c1
IC50 (second compound 0.0316 µM): 203 nM | IC50 (second compound 0.1 µM): 239 nM | IC50 (second compound 0.316 µM): 72.3 nM | IC50 (second compound 1 µM): 15.8 nM | IC50 (second compound 3.16 µM): 8.28 nM | IC50 (second compound 10 µM): 8.57 nM | viability, T/C (second compound 0.0316 µM, first compound 0.00316 µM): 115% | viability, T/C (second compound 0.0316 µM, first compound 0.01 µM): 89.4% | viability, T/C [1]: 63.3% | viability, T/C [2]: 61.6% | viability, T/C [3]: 48.8% | viability, T/C [4]: 29.3% | viability, T/C (second compound 0.1 µM, first compound 0.00316 µM): 110% | viability, T/C (second compound 0.1 µM, first compound 0.01 µM): 96.2% | viability, T/C [7]: 69.9% | viability, T/C [8]: 63.3% | viability, T/C [9]: 49% | viability, T/C [10]: 31.6% | viability, T/C (second compound 0.316 µM, first compound 0.00316 µM): 77.4% | viability, T/C (second compound 0.316 µM, first compound 0.01 µM): 68.1% | viability, T/C [13]: 56.2% | viability, T/C [14]: 48.1% | viability, T/C [15]: 35.6% | viability, T/C [16]: 21.9% | viability, T/C (second compound 1 µM, first compound 0.00316 µM): 60.8% | viability, T/C (second compound 1 µM, first compound 0.01 µM): 52.1% | viability, T/C [19]: 46.6% | viability, T/C [20]: 33.1% | viability, T/C [21]: 25.1% | viability, T/C [22]: 13.5% | viability, T/C (second compound 3.16 µM, first compound 0.00316 µM): 55.5% | viability, T/C (second compound 3.16 µM, first compound 0.01 µM): 50.2% | viability, T/C [25]: 39% | viability, T/C [26]: 31.2% | viability, T/C [27]: 22% | viability, T/C [28]: 12.8% | viability, T/C (second compound 10 µM, first compound 0.00316 µM): 54.6% | viability, T/C (second compound 10 µM, first compound 0.01 µM): 52% | viability, T/C [31]: 38.9% | viability, T/C [32]: 32.8% | viability, T/C [33]: 23.7% | viability, T/C [34]: 10.8%

O=c1[nH]cc(F)c(=O)[nH]1 + CNC(=O)c1ccc(Nc2nc(OC3CCCC3)c3c(-c4ccc5nc(C)oc5c4)c[nH]c3n2)c(OC)c1
IC50 (second compound 0.0316 µM): > 10000 nM | IC50 (second compound 0.1 µM): > 10000 nM | IC50 (second compound 0.316 µM): > 10000 nM | IC50 (second compound 1 µM): 3470 nM | IC50 (second compound 3.16 µM): 3470 nM | IC50 (second compound 10 µM): 1600 nM | viability, T/C [1]: 108% | viability, T/C [2]: 111% | viability, T/C [3]: 87.5% | viability, T/C [4]: 86.6% | viability, T/C [5]: 86.1% | viability, T/C [6]: 77.8% | viability, T/C [7]: 122% | viability, T/C [8]: 105% | viability, T/C [9]: 86.1% | viability, T/C [10]: 82.1% | viability, T/C [11]: 81.3% | viability, T/C [12]: 74.5% | viability, T/C [13]: 80.8% | viability, T/C [14]: 77% | viability, T/C [15]: 72.5% | viability, T/C [16]: 69.6% | viability, T/C [17]: 63.8% | viability, T/C [18]: 59.1% | viability, T/C [19]: 62.9% | viability, T/C [20]: 61.2% | viability, T/C [21]: 59.5% | viability, T/C [22]: 53.6% | viability, T/C [23]: 50.3% | viability, T/C [24]: 45.5% | viability, T/C [25]: 61.9% | viability, T/C [26]: 60% | viability, T/C [27]: 55.8% | viability, T/C [28]: 51% | viability, T/C [29]: 53.3% | viability, T/C [30]: 46.1% | viability, T/C [31]: 60.4% | viability, T/C [32]: 53.9% | viability, T/C [33]: 59.2% | viability, T/C [34]: 48% | viability, T/C [35]: 47.5% | viability, T/C [36]: 46.7%
